Results: PubChem BioAssay AID248 (DTP/NCI, 2004)
Where “and” joins values, the source holds several entries; their conditions need not be identical. Equal entries are not always repeated. Inconclusive results and toxic doses are left out. Cut-off read from the data, not from the text of the source: active = T/C of 150% or more; inactive = T/C below 125%.

Test system: L1210 leukemia ip in BDF1 mice, survival T/C
Experiment: NCI In Vivo Anticancer Drug Screen. Data for tumor model L1210 Leukemia (intraperitoneal) in B6D2F1 (BDF1) mice
Conditions: endpoint: mean survival time, higher = longer survival
Outline: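 Each compound was tested against a transplantable tumor grown in mice. The endpoint was survival, with treated animals benchmarked against vehicle controls as a simple ratio.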

[1] = dose: 100.0 mg/kg/injection, schedule: Q04DX003 (ip), vehicle: Klucel (hydroxypropylcellulose) (HPC)
[2] = dose: 200.0 mg/kg/injection, schedule: Q04DX003 (ip), vehicle: Klucel (hydroxypropylcellulose) (HPC)
[3] = dose: 100.0 mg/kg/injection, schedule: Q01DX009 (ip), vehicle: Klucel (hydroxypropylcellulose) (HPC)
[4] = dose: 200.0 mg/kg/injection, schedule: Q01DX009 (ip), vehicle: Klucel (hydroxypropylcellulose) (HPC)
[5] = dose: 100.0 mg/kg/injection, schedule: Q04DX002 (ip), vehicle: saline with Tween-80
[6] = dose: 200.0 mg/kg/injection, schedule: Q04DX002 (ip), vehicle: saline with Tween-80
[7] = dose: 400.0 mg/kg/injection, schedule: Q04DX002 (ip), vehicle: saline with Tween-80
[8] = dose: 50.0 mg/kg/injection, schedule: Q01DX001 (ip), vehicle: saline
[9] = dose: 100.0 mg/kg/injection, schedule: Q01DX001 (ip), vehicle: saline
[10] = dose: 200.0 mg/kg/injection, schedule: Q01DX001 (ip), vehicle: saline
[11] = dose: 400.0 mg/kg/injection, schedule: Q01DX001 (ip), vehicle: saline

Measured: T/C

COc1ccc2c(c1)CCC1C2CCC2(C)C(=O)OC(=O)C12 (stereo unspecified)
inactive: dose: 100.0 mg/kg/injection, schedule: Q01DX009 (sc), vehicle: steriod suspending solution 109 % of control | dose: 200.0 mg/kg/injection, schedule: Q01DX009 (sc), vehicle: steriod suspending solution 98 % of control | dose: 400.0 mg/kg/injection, schedule: Q01DX009 (sc), vehicle: steriod suspending solution 103 % of control

C[C@@H]1CC[C@@]2(NC1)O[C@H]1C[C@H]3[C@@H]4CC=C5C[C@@H](O)CC[C@]5(C)[C@H]4CC[C@]3(C)[C@H]1[C@@H]2C
inactive: dose: 5.0 mg/kg/injection, schedule: Q01DX Z (sc), vehicle: steriod suspending solution 91 % of control | dose: 10.0 mg/kg/injection, schedule: Q01DX Z (sc), vehicle: steriod suspending solution 100 % of control | dose: 20.0 mg/kg/injection, schedule: Q01DX Z (sc), vehicle: steriod suspending solution 96 % of control | dose: 40.0 mg/kg/injection, schedule: Q01DX Z (sc), vehicle: steriod suspending solution 98 % of control | dose: 50.0 mg/kg/injection, schedule: Q01DX009 (ip), vehicle: saline sonified 95 % of control | dose: 100.0 mg/kg/injection, schedule: Q01DX009 (ip), vehicle: saline sonified 94 % of control | [1] 94 % of control | dose: 200.0 mg/kg/injection, schedule: Q01DX009 (ip), vehicle: saline sonified 90 % of control | [2] 99 % of control

NC(=S)N/N=C1\c2ccccc2-c2c(F)c(F)c(F)c(F)c21
inactive: dose: 5.0 mg/kg/injection, schedule: Q01DX001 (ip), vehicle: carboxymethylcellulose (CMC) 96 % of control | dose: 10.0 mg/kg/injection, schedule: Q01DX001 (ip), vehicle: carboxymethylcellulose (CMC) 107 % of control | dose: 20.0 mg/kg/injection, schedule: Q01DX001 (ip), vehicle: carboxymethylcellulose (CMC) 96 % of control

CCCCOC(=O)c1ccc(NC(=O)Nc2cc(Cl)ccc2OC)cc1
inactive: [3] 98 % of control | [4] 98 % of control | dose: 400.0 mg/kg/injection, schedule: Q01DX009 (ip), vehicle: Klucel (hydroxypropylcellulose) (HPC) 90 % of control

CCOC(=O)/C(C#N)=C\c1ccccc1Cl
inactive: dose: 50.0 mg/kg/injection, schedule: Q01DX009 (ip), vehicle: Klucel (hydroxypropylcellulose) (HPC) 98 % of control | [3] 95 % of control | [1] 91 % of control | [4] 100 % of control | [2] 99 % of control

Cn1c(=O)n(OS(=O)(=O)c2ccccc2)c(=O)c2ccccc21
inactive: dose: 100.0 mg/kg/injection, schedule: Q01DX009 (ip), vehicle: other 107 % of control | dose: 200.0 mg/kg/injection, schedule: Q01DX009 (ip), vehicle: other 96 % of control | dose: 400.0 mg/kg/injection, schedule: Q01DX009 (ip), vehicle: other 98 % of control

CCOC(=O)C1c2cccc(O)c2C=CN1C(C)=O (stereo unspecified)
inactive: dose: 100.0 mg/kg/injection, schedule: Q04DX003 (ip), vehicle: saline 101 % of control | dose: 200.0 mg/kg/injection, schedule: Q04DX003 (ip), vehicle: saline 97 % of control | dose: 400.0 mg/kg/injection, schedule: Q04DX003 (ip), vehicle: saline 104 % of control

COc1ccc(CCOC(C)=O)cc1OC
inactive: dose: 100.0 mg/kg/injection, schedule: Q04DX002 (ip), vehicle: Klucel (hydroxypropylcellulose) (HPC) 102 % of control | dose: 200.0 mg/kg/injection, schedule: Q04DX002 (ip), vehicle: Klucel (hydroxypropylcellulose) (HPC) 97 % of control | dose: 400.0 mg/kg/injection, schedule: Q04DX002 (ip), vehicle: Klucel (hydroxypropylcellulose) (HPC) 97 % of control

O=C1/C(=C\c2cccnc2)CCCc2ccccc21
inactive: dose: 100.0 mg/kg/injection, schedule: Q04DX003 (ip), vehicle: carboxymethylcellulose (CMC) 100 % of control | dose: 200.0 mg/kg/injection, schedule: Q04DX003 (ip), vehicle: carboxymethylcellulose (CMC) 98 % of control | dose: 400.0 mg/kg/injection, schedule: Q04DX003 (ip), vehicle: carboxymethylcellulose (CMC) 98 % of control

O=C(OC12CCN(CC1)CC2)c1ccccc1
inactive: dose: 9.5 mg/kg/injection, schedule: Q01DX001 (ip), vehicle: saline 95 % of control | dose: 19.0 mg/kg/injection, schedule: Q01DX001 (ip), vehicle: saline 95 % of control

O=S(CCO)c1ccc(Cl)cc1 (stereo unspecified)
inactive: [5] 100 % of control and 109 % of control | dose: 100.0 mg/kg/injection, schedule: Q04DX003 (ip), vehicle: saline with Tween-80 118 % of control | [6] 102 % of control and 88 % of control | dose: 200.0 mg/kg/injection, schedule: Q04DX003 (ip), vehicle: saline with Tween-80 106 % of control | [7] 98 % of control and 103 % of control | dose: 400.0 mg/kg/injection, schedule: Q04DX003 (ip), vehicle: saline with Tween-80 100 % of control

O=C1C=C(c2c(-c3ccccc3)[nH]c3ccccc23)C(=O)c2ccccc21
inactive: dose: 100.0 mg/kg/injection, schedule: Q01DX001 (ip), vehicle: other 92 % of control | dose: 200.0 mg/kg/injection, schedule: Q01DX001 (ip), vehicle: other 97 % of control

CN(C)C1CCC2C3CC=C4CC(OC=O)CCC4(C)C3CCC21C (stereo unspecified)
inactive: dose: 9.38 mg/kg/injection, schedule: Q01DX001 (ip), vehicle: other 101 % of control | dose: 18.75 mg/kg/injection, schedule: Q01DX001 (ip), vehicle: other 101 % of control | dose: 37.5 mg/kg/injection, schedule: Q01DX001 (ip), vehicle: other 100 % of control

CN(C(=O)CCC(=O)O)c1cc([N+](=O)[O-])ccc1OCc1ccccc1
inactive: [8] 108 % of control | [9] 100 % of control | [10] 105 % of control | [11] 109 % of control

CCCCCCCCN
inactive: dose: 25.0 mg/kg/injection, schedule: Q01DX001 (ip), vehicle: saline 103 % of control | dose: 25.0 mg/kg/injection, schedule: Q01DX009 (ip), vehicle: saline 108 % of control and 111 % of control | dose: 25.0 mg/kg/injection, schedule: Q04DX002 (ip), vehicle: saline 101 % of control and 105 % of control | dose: 25.0 mg/kg/injection, schedule: Q04DX003 (ip), vehicle: saline 101 % of control | [8] 101 % of control | dose: 50.0 mg/kg/injection, schedule: Q01DX009 (ip), vehicle: saline 104 % of control | dose: 50.0 mg/kg/injection, schedule: Q04DX002 (ip), vehicle: saline 100 % of control and 105 % of control | dose: 50.0 mg/kg/injection, schedule: Q04DX003 (ip), vehicle: saline 98 % of control | [9] 94 % of control | dose: 100.0 mg/kg/injection, schedule: Q01DX009 (ip), vehicle: saline 111 % of control

COC(=O)c1ccccc1N(C)C(=O)c1ccccc1
inactive: [1] 102 % of control | [2] 107 % of control | dose: 400.0 mg/kg/injection, schedule: Q04DX003 (ip), vehicle: Klucel (hydroxypropylcellulose) (HPC) 109 % of control

ClC1(c2ccccc2)c2ccccc2C(Cl)(c2ccccc2)c2ccccc21 (stereo unspecified)
inactive: [5] 98 % of control | [6] 92 % of control | [7] 92 % of control

CCCCCCCCCCCCSCCC(=O)O
inactive: [9] 98 % of control | [10] 95 % of control | [11] 93 % of control

COc1ccc(-c2ccccc2)cc1C(=O)CCC(=O)O
inactive: [9] 100 % of control | [10] 96 % of control | [11] 96 % of control

COc1cc(OC)c(OC)cc1/C=C\c1ccc2ccccc2[n+]1C
inactive: dose: 25.0 mg/kg/injection, schedule: Q04DX003 (ip), vehicle: saline with Tween-80 101 % of control | dose: 50.0 mg/kg/injection, schedule: Q04DX003 (ip), vehicle: saline with Tween-80 90 % of control
